For data set [1] the following is noted: rats, intraduodenal administration compared with i.v.; cited from earlier work.
For data set [2] the following is noted: cited from earlier work.
A short description of data set [3]: Stability study of Mesna powder in the presence of riboflavin 5′-phosphate sodium (weight, dry oven). It is filed as physicochemical. As for the experimental part: About 1.5 g of Mesna powder was accurately weighed, without or with 7 mg or 15 mg of riboflavin 5′-phosphate sodium, and placed in a dry oven at 20° C. for 1 month to test its stability (Table 6).

Data set [4] in a line: Stability study of solutions comprising Mesna and riboflavin 5′-phosphate sodium (HPLC quantification of Mesna). It is filed as physicochemical. Particulars: 4° C. and 20° C. As for the experimental part: A stability study was conducted for the purpose of evaluating a possible interaction between riboflavin 5′-phosphate sodium, a dye accepted for parenteral use in humans, and Mesna. […]
In order to validate the obtained data, a reference corresponding to a reconstituted solution of Mesna without riboflavin 5′-phosphate sodium was analyzed at the same time as the samples comprising riboflavin 5′-phosphate sodium (Table 5).

Molecules are shown by their SMILES. Like-named read-outs stand apart in the source and are kept apart here. Where only a bound is given, the exact number is not on record here.

With `CN(C)c1ccc2nc3ccc(=[N+](C)C)cc-3sc2c1` [methylene blue], the “tissue concentrations after intraduodenal versus i.v. administration” value in data set [1] was “higher concentrations in intestinal wall and liver but lower concentrations in whole blood and brain”. Besides, the “effect of co-administration of mesna on pharmacokinetics” value in data set [2] (100 mg methylene blue with and without mesna) was “did not alter the pharmacokinetics”. For the same compound, the results for the “urinary excretion of methylene blue and its leucoform” value in data set [2] (i.v. administration (second value of the pair)) and in data set [2] (oral administration (first value of the pair)) were 28 % dose and 18 % dose, respectively. Besides, the estimated terminal half-life in data set [2] (whole blood, i.v. administration of 100 mg, seven volunteers) is reported as 5.25 h. Besides, the “area under the concentration-time curve” value was 137 nmol/min/mL in data set [2] (whole blood, i.v. administration of 100 mg) and 9 nmol/min/mL in data set [2] (whole blood, oral administration of 100 mg).

With `O=S(=O)([O-])CCS.[Na+]` [1.5 g Mesna powder], the “W1 = weight after 1 month in dry oven at 20° C.” value in data set [3] (after 1 month in dry oven at 20° C., ± standard deviation) was found to be 4.807 ± 0.016 g. For the same compound, the “W0 = weight before placement in dry oven at 20° C.” value in data set [3] (before placement in dry oven, ± standard deviation) stood at 4.907 ± 0.038 g.

As to `Cc1cc2nc3c(=O)[nH]c(=O)nc-3n(C[C@H](O)[C@H](O)[C@H](O)COP(=O)([O-])O)c2cc1C.[Na+]` [riboflavin 5′-phosphate sodium], the “interaction of riboflavin 5′-phosphate sodium with Mesna in solution (conclusion)” value in data set [4] (phosphate buffer, 1 h and 24 h) was “does not interfere with or degrade Mesna”.

Regarding `O=S(=O)([O-])CCS.[Na+]` [Mesna, sodium 2-mercaptoethanesulfonate], the “stability of Mesna in dry form in the presence of riboflavin 5′-phosphate sodium (conclusion)” value in data set [3] (dry form, 1 month at 20° C.) is reported as “stable”. Moreover, in data set [4] (0.23 mg/mL and 0.50 mg/mL RF5′PNa, before the 24 h point), the “variations in Mesna content after addition of riboflavin 5′-phosphate sodium” value is on record as ≤ 1%.

Source of the values: patent publication US20210137549A1, “DEVICE FOR CHEMICALLY ASSISTED DISSECTION” (AuXin Surgery SA, priority 2013, published 2021).
